Experimental data published in article PMC12257540, “From Inhibitors to PET: SAR-Based Development of [^18F]SK60 for mIDH1 Imaging” (Journal of Medicinal Chemistry, 2025).

Assays:
[1] = Ex vivo biodistribution in naïve mice; set-up: species or system CD-1 mice; details: i.v.
Method: [ ^ 18 F]-SK60 (151 ± 37.0 kBq) diluted in 200 μL of sterile isotonic saline was injected into the tail vein of restrained, awake mice. The animals were anesthetized with isoflurane at 5 (n = 2), 15 (n = 1–2), 30 (n = 3), and 60 (n = 3) min after injection; blood was collected from the retro-orbital plexus with a heparinized glass Pasteur pipet, and the anesthetized animal was sacrificed by cervical dislocation. Blood plasma was obtained by centrifugation of the whole blood (8000 rpm, 4 °C, 2 min). […] From the measured data, the uptake of the activity in the different tissues and organs at the different time points p.i. was calculated as a percentage of injected dose per gram of tissue (% ID/g) and standardized uptake values (SUV).

IDH1-U251 cells = test: In vitro cell uptake of [18F]SK60 in IDH1-U251 cells; format: cell-based, Human; details: 240 min incubation
Method: Human U251 glioblastoma cells, stably transfected and overexpressing either wild-type IDH1 (IDH1-U251) or IDH1R132H (IDH1R132H–U251), were obtained from Jaqueline Kessler and Dirk Vordermark (Department of Radiotherapy, Martin Luther University Halle-Wittenberg, Halle/Saale, Germany). Cells were grown in RPMI 1640 medium (10% FCS), supplemented with puromycin, to ensure the cultivation of transfected cells only.
The IDH1-U251 and IDH1R132H–U251 cells were seeded at 4,00,000 cells/mL in a 24-well cell culture plate 1 day before the experiment. The medium was replaced by 400 μL/well, and 4 μL of a 100-x stock solution of the respective inhibitor in 10% DMSO or vehicle (10% DMSO) was added about 2 h before the experiment. The experiment was started with the addition of 100 μL of [ ^ 18 F]-SK60 (0.477 ± 0.002 MBq/mL; 4.86 ± 0.33 nM) diluted in cell culture medium per well, and the well plates were incubated in a humidified-air atmosphere incubator containing 5% CO2 at 37 °C for various times. The incubation was stopped by aspiration of the supernatant and washing the cell layers twice with prechilled PBS (500 μL/well). […] The concentrations of surface-bound and internalized activities per well were calculated as a percentage of the applied dose per well and normalized to the protein concentration per well (% AD/μg protein). […]

Question: Which “activity in kidneys and bladder” value ([1]; kidneys and bladder, 60 min p.i.) does the source give for `Cc1cccc(NC(=O)c2nn(Cc3ccc([18F])cc3)c3c2CN(C(=O)c2ccc[nH]2)CC3(C)C)c1` [[18F]SK60] here?
Answer: The value was less than 1 SUVmean.

Question: What about the accumulation in liver ([1]; liver, 5 min p.i.) of the same molecule?
Answer: Its accumulation in liver is roughly 7 SUVmean.

Question: What about the “accumulation in small intestine” value ([1]; small intestine, 60 min p.i.) of the same molecule?
Answer: The value was roughly 13 SUVmean.

Question: What about the internalized radioligand (IDH1-U251 cells) of the same molecule?
Answer: The internalized radioligand was 0.074 ± 0.023 % AD/μg protein.

Question: And the surface-bound radioligand (IDH1-U251 cells)?
Answer: The surface-bound radioligand was 0.052 ± 0.029 % AD/μg protein.
